Reference: ChEMBL document CHEMBL3745675, “Design and optimization of selective azaindole amide M1 positive allosteric modulators” (Bioorg Med Chem Lett, 2016)

Legend:
[1] = Permeability in RRCK cells; assay type: ADME, cell-based, Canis lupus familiaris, MDCKII-LE; conditions: dog, MDCK; read-out: permeability
[2] = Ratio of unbound AUC in brain to plasma in C57BL/6j mouse; assay type: ADME, organism-based; conditions: read-out: Ratio AUC
Plasma = assay: Fraction unbound in C57BL/6j mouse plasma; assay type: ADME, cell-free

Compound	Papp [1]	Kp uu [2]	Cp(f) (Plasma)
O=C(N[C@H]1CCOC[C@@H]1O)c1cn(Cc2ccc(-n3cccn3)cc2)c2cccnc12	21.7 ×10⁻⁶ cm/s	0.04	0.13 nM
O=C(N[C@H]1CCOC[C@@H]1O)c1cn(Cc2ccc(-c3cc[nH]n3)cc2)c2cccnc12	14 ×10⁻⁶ cm/s		
